# Source: PMC7898037, “Improving mitochondria and ER stability helps eliminate upper motor neuron degeneration that occurs due to mSOD1 toxicity and TDP‐43 pathology” (Clinical and Translational Medicine, 2021)
# Experiments:
# WT‐UeGFP mice = assay: Hanging wire test (max 60 s), WT‐UeGFP mice; type: in vivo; set-up: Mean Diff. (wire hanging), vehicle vs. NU-9 / Mean (wire hanging): unit not given here; details: for Hanging wire test, group mean (Mean 1 / Mean 2): WT-UeGFP mice; for wire hanging, Average / Mean (wire hanging): WT-UeGFP
# Protocol: hSOD1^G93A‐UeGFP, prpTDP‐43^A315T‐UeGFP and WT‐UeGFP mice were weighed and the required NU‐9 dose per weight was calculated (20 or 100 mg/kg), which was administered once daily by oral gavage, starting at postnatal day (P)60 and continuing until P120. Animals from the untreated group received the vehicle (NMP and olive oil) only. For oral administration purposes, 20 ga × 38 mm plastic feeding tubes were used (Instech Laboratories, Inc). The gavage tip was inserted into the mouth directly over the tongue and into the pharynx. While observing the swallowing reflex, the tip was safely and smoothly slid into the esophagus. Once the administration was completed, the gavage tip was pulled straight out.
# Behavior data were collected from hSOD1^G93A‐UeGFP and WT‐UeGFP mice (starting at P60 and every 7 days until P116) and from prpTDP‐43^A315T‐UeGFP mice (at P60, P90, and P120) with the following number of mice for each group: WT‐UeGFP vehicle (n = 10), hSOD1^G93A‐UeGFP vehicle (n = 6), WT‐UeGFP 20 mg/kg/day NU‐9 (n = 5), hSOD1^G93A‐UeGFP 20 mg/kg/day NU‐9 (n = 7), WT‐UeGFP 100 mg/kg/day NU‐9 (n = 11), hSOD1^G93A‐UeGFP 100 mg/kg/day NU‐9 (n = 9), prpTDP‐43^A315T‐UeGFP untreated (n ≥ 3), and prpTDP‐43^A315T‐UeGFP 100 mg/kg/day NU‐9 (n = 4) (Table S3).
# Mice were placed on a wire mesh, which was then inverted and suspended above the home cage; the time when the animal fell was recorded. This test was performed three times for a maximum of 60 s each session, with a 1‐min rest period between each trial. The average performance for each session is presented as the average of the three trials.
# [1] = set-up: method as in PMID 22189273, PMID 22837812; details: cited from earlier work
# [2] = WT-UeGFP vehicle vs. NU-9 20 mg/kg/day, P102
# [3] = WT-UeGFP vehicle vs. NU-9 20 mg/kg/day, P109
# [4] = WT-UeGFP vehicle vs. NU-9 20 mg/kg/day, P116
# [5] = WT-UeGFP vehicle vs. NU-9 100 mg/kg/day, P102
# [6] = WT-UeGFP vehicle vs. NU-9 100 mg/kg/day, P109
# [7] = WT-UeGFP vehicle vs. NU-9 100 mg/kg/day, P116
smiles,measurement,setting,value
C[C@H](Oc1cc(C(F)(F)F)cc(C(F)(F)F)c1)C1CC(=O)CC(=O)C1 [NU‐9],"Hanging wire test, group mean (Mean 1 / Mean 2)","WT‐UeGFP mice; NU-9 20 mg/kg/day, P102, max 60 s",60 s
same,"Hanging wire test, group mean (Mean 1 / Mean 2)","WT‐UeGFP mice; NU-9 20 mg/kg/day, P109, max 60 s",60 s
same,"Hanging wire test, group mean (Mean 1 / Mean 2)","WT‐UeGFP mice; NU-9 20 mg/kg/day, P116, max 60 s",60 s
same,"Hanging wire test, group mean (Mean 1 / Mean 2)","WT‐UeGFP mice; NU-9 100 mg/kg/day, P102, max 60 s",60 s
same,"Hanging wire test, group mean (Mean 1 / Mean 2)","WT‐UeGFP mice; NU-9 100 mg/kg/day, P109, max 60 s",60 s
same,"Hanging wire test, group mean (Mean 1 / Mean 2)","WT‐UeGFP mice; NU-9 100 mg/kg/day, P116, max 60 s",59.7 s
same,"Mean Diff. (wire hanging), vehicle vs. NU-9","WT‐UeGFP mice; WT-UeGFP vehicle vs. NU-9 20 mg/kg/day, P60",0
same,"Mean Diff. (wire hanging), vehicle vs. NU-9","WT‐UeGFP mice; WT-UeGFP vehicle vs. NU-9 20 mg/kg/day, P67",0.3333
same,"Mean Diff. (wire hanging), vehicle vs. NU-9","WT‐UeGFP mice; WT-UeGFP vehicle vs. NU-9 20 mg/kg/day, P74",2.267
same,"Mean Diff. (wire hanging), vehicle vs. NU-9","WT‐UeGFP mice; WT-UeGFP vehicle vs. NU-9 20 mg/kg/day, P81",0
same,"Mean Diff. (wire hanging), vehicle vs. NU-9","WT‐UeGFP mice; WT-UeGFP vehicle vs. NU-9 20 mg/kg/day, P88",0
same,"Mean Diff. (wire hanging), vehicle vs. NU-9","WT‐UeGFP mice; WT-UeGFP vehicle vs. NU-9 20 mg/kg/day, P95",2
same,"Hanging wire test, mean difference vehicle minus NU-9",WT‐UeGFP mice; [2],0 s
same,"Mean Diff. (wire hanging), vehicle vs. NU-9",WT‐UeGFP mice; [2],0
same,"Hanging wire test, mean difference vehicle minus NU-9",WT‐UeGFP mice; [3],0 s
same,"Mean Diff. (wire hanging), vehicle vs. NU-9",WT‐UeGFP mice; [3],0
same,"Hanging wire test, mean difference vehicle minus NU-9",WT‐UeGFP mice; [4],0 s
same,"Mean Diff. (wire hanging), vehicle vs. NU-9",WT‐UeGFP mice; [4],0
same,"Mean Diff. (wire hanging), vehicle vs. NU-9","WT‐UeGFP mice; WT-UeGFP vehicle vs. NU-9 100 mg/kg/day, P60",1.273
same,"Mean Diff. (wire hanging), vehicle vs. NU-9","WT‐UeGFP mice; WT-UeGFP vehicle vs. NU-9 100 mg/kg/day, P67",0
same,"Mean Diff. (wire hanging), vehicle vs. NU-9","WT‐UeGFP mice; WT-UeGFP vehicle vs. NU-9 100 mg/kg/day, P74",0
same,"Mean Diff. (wire hanging), vehicle vs. NU-9","WT‐UeGFP mice; WT-UeGFP vehicle vs. NU-9 100 mg/kg/day, P81",0
same,"Mean Diff. (wire hanging), vehicle vs. NU-9","WT‐UeGFP mice; WT-UeGFP vehicle vs. NU-9 100 mg/kg/day, P88",0.1818
same,"Mean Diff. (wire hanging), vehicle vs. NU-9","WT‐UeGFP mice; WT-UeGFP vehicle vs. NU-9 100 mg/kg/day, P95",0
same,"Hanging wire test, mean difference vehicle minus NU-9",WT‐UeGFP mice; [5],0 s
same,"Mean Diff. (wire hanging), vehicle vs. NU-9",WT‐UeGFP mice; [5],0
same,"Hanging wire test, mean difference vehicle minus NU-9",WT‐UeGFP mice; [6],0 s
same,"Mean Diff. (wire hanging), vehicle vs. NU-9",WT‐UeGFP mice; [6],0
same,"Hanging wire test, mean difference vehicle minus NU-9",WT‐UeGFP mice; [7],0.303 s
same,"Mean Diff. (wire hanging), vehicle vs. NU-9",WT‐UeGFP mice; [7],0.303
same,"wire hanging, Average","WT‐UeGFP mice; NU-9 20 mg/kg/day po, P60",60 s
same,"wire hanging, Average","WT‐UeGFP mice; NU-9 20 mg/kg/day po, P67",59.6667 s
same,"wire hanging, Average","WT‐UeGFP mice; NU-9 20 mg/kg/day po, P74",57.7333 s
same,"wire hanging, Average","WT‐UeGFP mice; NU-9 20 mg/kg/day po, P81",60 s
same,"wire hanging, Average","WT‐UeGFP mice; NU-9 20 mg/kg/day po, P88",60 s
same,"wire hanging, Average","WT‐UeGFP mice; NU-9 20 mg/kg/day po, P95",58 s
same,"wire hanging, Average","WT‐UeGFP mice; NU-9 20 mg/kg/day po, P102",60 s
same,"wire hanging, Average","WT‐UeGFP mice; NU-9 20 mg/kg/day po, P109",60 s
same,"wire hanging, Average","WT‐UeGFP mice; NU-9 20 mg/kg/day po, P116",60 s
same,Mean (wire hanging),"WT‐UeGFP mice; NU-9 20 mg/kg/day, P60",60
same,Mean (wire hanging),"WT‐UeGFP mice; NU-9 20 mg/kg/day, P67",59.67
same,Mean (wire hanging),"WT‐UeGFP mice; NU-9 20 mg/kg/day, P74",57.73
same,Mean (wire hanging),"WT‐UeGFP mice; NU-9 20 mg/kg/day, P81",60
same,Mean (wire hanging),"WT‐UeGFP mice; NU-9 20 mg/kg/day, P88",60
same,Mean (wire hanging),"WT‐UeGFP mice; NU-9 20 mg/kg/day, P95",58
same,"wire hanging, Average","WT‐UeGFP mice; NU-9 100 mg/kg/day po, P60",58.7273 s
same,"wire hanging, Average","WT‐UeGFP mice; NU-9 100 mg/kg/day po, P67",60 s
same,"wire hanging, Average","WT‐UeGFP mice; NU-9 100 mg/kg/day po, P74",60 s
same,"wire hanging, Average","WT‐UeGFP mice; NU-9 100 mg/kg/day po, P81",60 s
same,"wire hanging, Average","WT‐UeGFP mice; NU-9 100 mg/kg/day po, P88",59.8182 s
same,"wire hanging, Average","WT‐UeGFP mice; NU-9 100 mg/kg/day po, P95",60 s
same,"wire hanging, Average","WT‐UeGFP mice; NU-9 100 mg/kg/day po, P102",60 s
same,"wire hanging, Average","WT‐UeGFP mice; NU-9 100 mg/kg/day po, P109",60 s
same,"wire hanging, Average","WT‐UeGFP mice; NU-9 100 mg/kg/day po, P116",59.697 s
same,Mean (wire hanging),"WT‐UeGFP mice; NU-9 100 mg/kg/day, P60",58.73
same,Mean (wire hanging),"WT‐UeGFP mice; NU-9 100 mg/kg/day, P67",60
same,Mean (wire hanging),"WT‐UeGFP mice; NU-9 100 mg/kg/day, P74",60
same,Mean (wire hanging),"WT‐UeGFP mice; NU-9 100 mg/kg/day, P81",60
same,Mean (wire hanging),"WT‐UeGFP mice; NU-9 100 mg/kg/day, P88",59.82
same,Mean (wire hanging),"WT‐UeGFP mice; NU-9 100 mg/kg/day, P95",60
same,Plasma protein binding,[1],90%
